In the supplement of paper PMC10307832:

Assays:
Test in all cases: relative viability (nuclei count vs DMSO), 5 days (fraction); higher = more cells survive
[1] = compound: Cc1ccc(NC(=O)c2ccc(CN3CCN(C)CC3)cc2)cc1Nc1nccc(-c2cccnc2)n1 [Imatinib] + CC(=O)c1c(C)c2cnc(Nc3ccc(N4CCNCC4)cn3)nc2n(C2CCCC2)c1=O [Palbociclib] (partner 0.5 µM)
Procedure, shortened: (§1)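 Relative viability was taken as the ratio of nuclei in treated wells to nuclei in vehicle wells. Lung cancer cell lines in 1536-well plates received compounds by pin tool one day after seeding, either one drug alone or a fixed anchor-drug dose plus five library-drug doses (not always all listed) in √10 steps. Nuclei were counted on 4× images after 5 days of treatment, and values are medians of duplicate plates.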

[2] = compound: Cc1ccc(NC(=O)c2ccc(CN3CCN(C)CC3)cc2)cc1Nc1nccc(-c2cccnc2)n1 [Imatinib] + CCNC(=O)c1noc(-c2cc(C(C)C)c(O)cc2O)c1-c1ccc(CN2CCOCC2)cc1 [Luminespib] (partner 0.01 µM)
Procedure, shortened: as §1

[3] = compound: Cc1ccc(NC(=O)c2ccc(CN3CCN(C)CC3)cc2)cc1Nc1nccc(-c2cccnc2)n1 [Imatinib] + COc1cccc2cc(-c3nc([C@H]4CC[C@H](C(=O)O)CC4)n4ncnc(N)c34)[nH]c12 [OSI-027] (partner 0.5 µM)
Procedure, shortened: as §1

[4] = compound: Cc1ccc(NC(=O)c2ccc(CN3CCN(C)CC3)cc2)cc1Nc1nccc(-c2cccnc2)n1 [Imatinib]
Procedure, shortened: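 Hoechst staining, done together with fixation and permeabilisation, marked nuclei for 4× imaging and MetaXpress counting. This followed 5 days without medium change after lung cancer cell lines, kept overnight at 37 °C in 1536-well plates, were pinned with five library-drug doses (not always all listed) spaced by √10 on vehicle-anchored plates. Viability is the ratio of treated-well to vehicle-well nuclei, expressed as a median across plates. Plates passed only at control CV below 25% with at least one doubling.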

Cell Line | relative viability ([1]; first compound 0.02 µM) | relative viability ([1]; first compound 0.2 µM) | relative viability ([1]; first compound 0.6325 µM) | relative viability ([1]; first compound 2 µM) | relative viability ([2]; first compound 0.02 µM) | relative viability ([2]; first compound 0.06325 µM) | relative viability ([2]; first compound 0.2 µM) | relative viability ([2]; first compound 0.6325 µM) | relative viability ([3]; first compound 0.02 µM) | relative viability ([3]; first compound 0.2 µM) | relative viability ([3]; first compound 0.6325 µM) | relative viability ([3]; first compound 2 µM) | relative viability ([4]; 0.02 µM) | relative viability ([4]; 0.2 µM) | relative viability ([4]; 0.6325 µM) | relative viability ([4]; 2 µM) | relative viability ([2]; first compound 2 µM) | relative viability ([3]; first compound 0.06325 µM) | relative viability ([4]; 0.06325 µM) | relative viability ([1]; first compound 0.06325 µM)
HOP-62 | 0.503 | 0.516 | 0.408 | 0.398 | 1.06 | 0.84 | 1.03 | 0.886 | 0.999 | 0.993 | 0.724 | 0.781 | 1.15 | 1.2 | 0.999 | 0.943 |  |  |  | 
LC-2-ad | 0.543 | 0.559 | 0.5 | 0.508 | 1.23 | 0.744 | 0.935 | 1 | 0.788 | 0.822 | 0.833 | 0.929 | 1.04 | 0.986 | 0.973 | 1 | 1.07 | 0.623 | 0.715 | 
LCLC-97TM1 | 0.25 | 0.267 | 0.172 | 0.219 | 0.89 |  | 0.864 | 0.889 | 0.562 | 0.577 | 0.542 | 0.444 | 1.08 | 1.01 | 1 | 1.03 | 0.813 |  |  | 
LCLC-103H | 0.465 | 0.457 | 0.434 | 0.418 | 1.03 | 0.8 | 1.04 | 0.892 | 0.453 | 0.548 | 0.415 | 0.433 | 1.02 | 1.12 | 0.964 |  | 0.863 | 0.375 | 0.806 | 0.499
LK-2 | 0.757 |  |  | 0.662 | 0.168 | 0.174 | 0.168 | 0.196 | 0.178 | 0.151 | 0.217 | 0.212 | 1.05 | 1.08 | 0.678 | 0.97 | 0.199 | 0.207 | 0.805 | 0.726
LOU-NH91 | 0.524 | 0.547 | 0.572 | 0.496 | 0.319 | 0.35 | 0.361 | 0.347 | 0.759 | 0.745 | 0.699 | 0.658 | 0.968 | 0.966 | 0.964 | 0.874 | 0.303 | 0.708 | 1.09 | 0.543
LU99A | 0.394 | 0.411 | 0.413 | 0.454 | 0.276 | 0.247 | 0.227 | 0.219 | 0.315 | 0.301 | 0.323 | 0.28 | 1.03 | 0.977 | 0.964 | 1.17 | 0.245 | 0.285 | 1.05 | 0.424
LXF-289 | 0.602 | 0.655 | 0.556 | 0.578 | 0.805 | 0.5 | 0.615 | 0.566 | 0.791 | 0.814 | 0.754 | 0.724 | 1.06 | 1.1 | 1.01 | 0.976 | 0.672 | 0.556 | 0.998 | 
NCI-H23 | 0.455 | 0.521 | 0.467 | 0.479 | 0.248 | 0.225 | 0.221 | 0.185 | 0.62 | 0.551 | 0.598 | 0.496 | 1.06 | 1.07 | 0.967 | 0.926 | 0.189 | 0.606 | 0.994 | 0.66
NCI-H322M | 0.474 | 0.501 | 0.423 | 0.495 | 0.987 | 0.868 | 0.826 | 0.873 | 0.624 | 0.553 | 0.522 | 0.52 | 0.988 | 0.99 | 0.831 | 0.944 | 0.826 | 0.544 | 1.05 | 0.518
NCI-H358 | 0.159 | 0.153 | 0.142 | 0.146 | 0.317 | 0.608 | 0.501 | 0.308 | 0.861 | 0.843 | 0.635 | 0.855 |  | 1.02 | 0.819 | 0.947 | 0.418 | 0.382 | 0.865 | 0.138
NCI-H441 | 0.22 | 0.229 | 0.229 | 0.233 | 0.37 | 0.326 | 0.448 | 0.304 | 0.675 | 0.632 | 0.581 | 0.563 | 1.06 | 1.2 | 0.885 |  | 0.309 | 0.561 | 0.969 | 0.213
NCI-H460 | 0.278 | 0.191 | 0.196 | 0.104 | 0.0343 | 0.0424 | 0.0365 | 0.0344 | 0.743 | 0.819 | 0.566 | 0.503 | 1.1 | 1.11 | 0.925 | 1 | 0.0321 | 1.09 | 0.985 | 0.22
NCI-H596 |  |  |  |  | 0.984 | 1.29 | 1.01 | 0.798 | 0.775 | 0.689 | 0.626 | 0.61 |  | 1.03 | 1.01 | 0.907 | 0.91 | 0.669 | 0.903 | 
NCI-H1299 |  |  |  |  |  |  |  |  |  |  |  |  | 1.05 | 1.07 | 1.02 | 1.04 |  |  |  | 
NCI-H1355 | 0.433 | 0.426 | 0.398 | 0.39 |  |  |  |  | 0.386 | 0.388 | 0.315 | 0.432 | 1.05 | 1.08 | 0.978 | 0.99 |  |  |  | 
NCI-H1563 |  |  |  |  | 0.486 | 0.537 | 0.545 | 0.496 | 0.825 | 0.774 | 0.743 | 0.731 |  | 1.11 | 0.963 | 0.976 | 0.471 | 0.803 | 0.912 | 
NCI-H1648 | 0.23 | 0.256 | 0.267 | 0.237 |  |  |  |  | 0.253 | 0.243 |  | 0.237 | 0.744 | 0.699 | 0.421 | 0.618 |  | 0.266 | 0.627 | 0.262
NCI-H1666 | 0.678 | 0.642 | 0.705 | 0.621 | 1.06 | 1.21 |  | 1.18 |  |  |  |  |  | 0.98 | 1.15 | 1.01 | 1.03 |  | 0.958 | 0.628
